According to PubChem BioAssay AID179 (DTP/NCI, 2004):
Calls of active or inactive are those of the source.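 How the source made its calls: active means compounds giving half or more protection of infected cells from virus-caused growth loss, again on retest; inactive means the rest.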

Tested on: CEM cells HIV-1 protection, formazan growth assay
Test: NCI AIDS Antiviral Assay
Conditions: for IC50: measured here: growth of uninfected CEM cells
Summary of the method: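 Protection of CEM cells against HIV-1 measured as cell growth via soluble formazan read-out, with five concentrations tested on both infected and uninfected cells; failure to protect may reflect toxicity.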

| SMILES | EC50 | IC50 | outcome |
| --- | --- | --- | --- |
| C[N+](C)(C)c1cc2c(nn1)Nc1ccccc1S2 | > 200 µM | 10 µM |  |
| Cc1ccc(C2=Nc3ccc(F)cc3SC(C(=O)O)C2)cc1 (centres undefined) |  |  | inactive |
| CO/C(=N\Nc1ccc([N+](=O)[O-])cc1)P(=O)(OC(C)C)OC(C)C | > 12.9 µM | > 12.9 µM |  |
| C1N2CN3CN1CN(C2)C3.[Cu+2] |  |  | inactive |
| CC(=O)[O-].Cc1ccnc(NS(=O)(=O)c2ccc(N=Cc3ccccc3[O-])cc2)n1.Cc1ccnc(NS(=O)(=O)c2ccc(N=Cc3ccccc3[O-])cc2)n1.[Co+2].[H+] | > 200 µM | 10.5 µM |  |
| CC(=O)CNC(=O)OC(C)(C)C |  |  | inactive |
| C/C=C(\C(=O)OC)C1CC2OC(=O)C1(C=O)C13CCNC21N(C)c1ccccc13 (centres undefined) | > 126 µM | 117 µM |  |
| COC(=O)C1(Cc2ccc3c(c2)CCC3)Cc2cc3c(cc2C1)CCC3 | > 200 µM | > 200 µM |  |
| C(=N\NC1=NCCN1)/c1ccc2ccccc2c1 | > 200 µM | 22.9 µM |  |
| CC(C)NC(=O)OCCN=C1c2ccccc2C(Br)C(Br)c2ccccc21 (centres undefined) | > 200 µM | 0.575 µM |  |
| O=[N+]([O-])c1nccn1CCC[n+]1ccccc1 | > 200 µM | > 200 µM |  |
| O=C(Nc1ccc(Sc2ccc(N=Nc3c(O)c(S(=O)(=O)O)cc4cc(S(=O)(=O)O)ccc34)cc2)cc1)c1ccc(N=Nc2ccc3c(S(=O)(=O)O)cccc3c2O)cc1 |  |  | inactive |
| O=C(CCc1ccc(O)c(O)c1)OCCc1ccccc1 | > 200 µM | 6.61 µM |  |
| N.N.N.O=N[O-].O=N[O-].O=N[O-].[Co+3] |  |  | inactive |
| O=C1NC(=O)C(=Cc2ccc(Cl)cc2)C(=O)N1 | > 75.9 µM | > 75.9 µM | inactive |
| O=C(O)CC(SSCc1ccccc1)C(=O)O (centres undefined) | > 200 µM | > 200 µM |  |
| CCNc1cnc2c(n1)c(=O)n(C)c(=O)n2C | > 200 µM | > 200 µM |  |
| CC1(C)CC2(C)CC1CC2O (centres undefined) | > 200 µM | > 200 µM |  |
| O=C1NC2(CN3CCC2CC3)C(=O)N1CN(Cc1ccccc1)c1ccccc1 (centres undefined) | > 200 µM | 91.2 µM |  |
| Cn1cnc([N+](=O)[O-])c1Sc1nc2ccccc2[nH]1 | > 19.1 µM | 6.92 µM |  |
| CCOC(=O)/C(=C/c1cccc(C#N)c1)N(CC)CC | > 661 µM | 347 µM |  |
| CC(=O)NC(/C=C\C(=O)O)C(=O)O (centres undefined) | > 200 µM | > 200 µM |  |

| SMILES | EC50 | IC50 | outcome |
| --- | --- | --- | --- |
| CC1(C)C2CC(O)C1CCC2=O (centres undefined) | > 200 µM | > 200 µM |  |
| COc1ccc(/C=N/Nc2ccc(S(=O)(=O)O)cc2)cc1 | > 759 µM | 331 µM |  |
| N#CN=CN1CCN(c2ccccn2)CC1 | > 537 µM | > 537 µM |  |
| C#CC1=CC(=O)C(OC)=CC1=O | > 200 µM | 31.6 µM |  |
| CCCCCCCSCc1nc2ccccc2c(C)[n+]1[O-] | > 66.1 µM | 50.1 µM |  |
| [Pt].c1ccc([PH+](CC[PH+](CC[PH+](c2ccccc2)c2ccccc2)c2ccccc2)CC[PH+](c2ccccc2)c2ccccc2)cc1 (centres undefined) | > 15.8 µM | 12.6 µM |  |
| CC(C)(C)[Si](C)(C)OCC1OC(n2ccc(=O)[nH]c2=O)C(CCN(O)CC2OC(n3ccc(=O)[nH]c3=O)C(O[Si](C)(C)C(C)(C)C)C2O[Si](C)(C)C(C)(C)C)C1O[Si](C)(C)C(C)(C)C (centres undefined) | > 126 µM | 105 µM |  |
| COc1ccc2c3c([nH]c2c1)CCN(Cc1ccccc1)C3 | > 200 µM | 45.7 µM |  |
| CC1=C(C)C(=O)C2=C(OCCCO2)C1=O | > 1200 µM | 3.39 µM |  |
| CCOC(=O)c1cn2c(nc1=O)N[C@H]1CCCC[C@@H]12 | > 200 µM | > 200 µM |  |
| C=C(C)C12CC3CC(/C(=N/O)C(C1)/C3=N\O)[C@@]2(C)O (some centres undefined) | > 355 µM | > 355 µM |  |
| CCOC(=O)/C(=C\c1ccc(N(C)C)cc1)C(C)=O | > 501 µM | 162 µM |  |
| O=c1c2ccccc2nc2[nH]ncn12 | > 200 µM | 117 µM |  |
| COc1ccc(-c2c3c(n(C4OC(COC(C)=O)C(OC(C)=O)C(OC(C)=O)C4OC(C)=O)c(=S)c2C#N)CCCC3)cc1 (centres undefined) | > 200 µM | 89.1 µM |  |
| C=C1[C@@H](OC(C)=O)C[C@@H]2C[C@]3(C)C(OC(C)=O)CC(C)(C)[C@@H]3C12O (some centres undefined) | > 204 µM | > 204 µM |  |
| N#Cc1c(-c2ccccc2)ssc1=S | > 200 µM | 14.1 µM |  |
| O=S(=O)(Cc1ccccc1)C(I)c1ccccc1 (centres undefined) | > 69.2 µM | 13.8 µM |  |
| O=C(N/C(=C\c1ccccc1O)c1nc2ccccc2[nH]1)c1ccccc1 | > 51.3 µM | > 51.3 µM |  |
| COc1ccc2[nH]c(Br)c(CCNC(C)=O)c2c1 | > 200 µM | > 200 µM |  |
| O=C1c2ccccc2C(=O)c2sc(Nc3cc(Cl)ccc3Cl)nc21 | > 200 µM | 10.5 µM |  |
| C[n+]1c(-c2ccc(/C=N/NC(=O)c3ccc(C(=O)N/N=C/c4ccc(-c5cn6ccccc6[n+]5C)cc4)nc3)cc2)cn2ccccc21 | 2.63 µM | 21.9 µM |  |
| CC(C)(C)OC(=O)N[C@H]1CCN(C2CCCCC2)C1=O | > 200 µM | > 200 µM |  |
